In patent US20080075730A1, “Methods and compositions for treating biofilms” (priority 2003, published 2008):

Tests used:
[1] = tested on: Pseudomonas aeruginosa PA14 gacS^− biofilms; assay: Frequency of SCV cells arising from 24-h biofilms exposed for 18 h; type: cell-based; settings: for Log-survival / No. of survivors / SCV frequency: LB broth, overnight (18 h)
[2] = tested on: P. aeruginosa PA14 gacA biofilms; assay: Antibiotic susceptibility profiling of biofilms with the MBEC device; type: cell-based, Pseudomonas aeruginosa; settings: in words
Description: Growth Conditions, Sample Analysis and Bio-Assays of Pseudomonas aeruginosa. Biofilm and planktonic growth studies were performed using the Calgary Biofilm Device (CBD) (MBEC™ Biofilm Technologies Limited). Pseudomonas aeruginosa PA14 wild type, gacA and toxA strains were grown for 24 hours in Tryptic Soy Broth (BDH). Biofilm and planktonic populations were sampled at points.
Sampling of biofilm populations was achieved by dislodging a peg from the 96 peg lid, whereas planktonic populations were sampled by removing an aliquot from the growth vessel. Biofilms were disrupted to release individual component cells by sonication. Cell counts of both populations were determined by serial dilution in 0.9% saline and spot plating on Tryptic Soy Agar plates (BDH). Antibiotic susceptibility profiling of P. aeruginosa PA14 wild type, toxA and gacA strains was performed using the MBEC™ device as per manufacturer's instructions (MBEC™ Biofilm Technologies Limited).

[3] = tested on: Pseudomonas aeruginosa PA14 gacS^− biofilms; assay: Frequency of SCV cells arising from 24-h biofilms exposed for 18 h; type: cell-based; settings: for Log-survival / SCV frequency: LB broth, antibiotic 1.25 μg mL^−1, overnight (18 h); for frequency of SCVs (phenotypic variants) among surviving cells, in words: 18 h exposure of 24-h biofilms
Description: In an alternative set of experiments, the frequency of SCV cells arising from 24-h biofilms of P. aeruginosa PA14 gacS was evaluated. Antibiotics were diluted from stock solutions into LB broth to obtain final concentrations of […]. These were arranged in triplicate in a micro-titre plate. Biofilms were incubated in these low concentrations of antibacterials for 18 h at 35° C. and 95% relative humidity. Goat and human serum were also assayed in this array, and were kind gifts from The Life and Environmental Sciences Animal Care Facility at the University of Calgary, Department of Biological Sciences. After exposure, biofilms were treated in a manner identical to that described above.
Frequency of phenotypic variation. During the course of susceptibility assays, the proportion of SCV cells recovered from biofilms after exposure to Ag^+ or H2O2 was increased relative to the corresponding growth controls. It was queried whether this may be true for other antimicrobial agents or growth conditions. An array of clinically used antibiotics, saline, and goat and human sera were examined for an ability to select for these SCVs from 24-h biofilms of P. aeruginosa PA14 gacS. Biofilms were exposed to these agents for 18 h and each assay was performed in triplicate. Viable cell counts were determined for each exposure condition, and log-survival was determined. The proportion of SCV cells in bacterial populations recovered from these exposure conditions was calculated as the mean of the proportions from each individual trial.

[4] = tested on: Pseudomonas aeruginosa PA14 wild-type; assay: microbe, parasite or virus in culture; type: cell-based; settings: for differences in planktonic cell susceptibility between the different strains: wild type vs gacS^− vs SCV, log2 difference or less; for MIC72 h: wild type, planktonic cells, OD650 after 72 h at 35° C., mean ± SD of four trials
Description: (§1) Antimicrobial susceptibility testing. Antibiotic, metal and biocide susceptibility tests were performed. Antimicrobials were arranged into arrays in microtitre plates that typically consisted of serial two-fold dilutions along the rows of wells (the challenge plates). The first and last wells of every row were used as sterility and growth controls, respectively. […] Biofilms were rinsed with PBS (to remove loosely adherent planktonic cells) and inserted into the challenge plates. After exposure, biofilms were rinsed once in PBS and inserted into microtitre plates containing […] of recovery medium in each well (LB broth, 5 mM GSH, 5 mM L-cys, 1% v/v tween-20). These biofilms were disrupted into the recovery medium using a sonicator, and the recovered cells were serially diluted and plated for viable cell counting. Spot plates from these experiments were incubated for a minimum of 36 h at 35° C. before enumeration. Minimum inhibitory concentration (MIC) values were determined by reading the optical density at 650 nm (OD650) of challenge plates after 72 h at 35° C. using a THERMOmax microplate reader with SOFTMAX PRO data analysis software (Molecular Devices, Sunnyvale, Calif.).
(§2) For susceptibility testing, growth-curve data were used to calibrate incubation times to produce biofilms of similar cell density. […] In this model system, planktonic cells shed from the surface of biofilms served as the inoculum for MIC determinations.

[5] = tested on: Pseudomonas aeruginosa PA14 SCV; assay: MIC determination, planktonic cells shed from biofilms (MBEC P&G device); type: cell-based; settings: SCV; planktonic cells; OD650 after 72 h at 35° C.; mean ± SD of four trials
Description: as §1, §2

[6] = tested on: Pseudomonas aeruginosa PA14 gacS^−; assay: as above; type: cell-based; settings: gacS^−; planktonic cells; OD650 after 72 h at 35° C.; mean ± SD of four trials
Description: as §1, §2

[7] = tested on: Pseudomonas aeruginosa PA14 wild-type biofilms; type: cell-based; settings: for MBEC99.9: wild type biofilms, 2 h exposure, 3 log10 reduction in viable cells
Description: (§3) Biofilm formation. Biofilms were aerobically cultivated using the MBEC high-throughput (HTP) or Physiology and Genetics (P&G) device (Innovotech, Edmonton, Canada) as described in the manufacturer's instructions and by Ceri et al. (1999). To summarize, the parts of this batch culture apparatus were used in two ways. The top half of the plastic MBEC™-HTP device is a lid with 96 polystyrene pegs that also fits over a standard 96-well microtitre plate. For Biofilm growth, the bottom half was either (1) a corrugated trough that guided 22 mL of inoculum across the pegs when the device was placed on a rocker at 3.5 rocks per min (HTP format), or (2) a microtitre plate with […] of inoculum in each well that was placed on a gyrorotary shaker at 150 r.p.m. (P&G format). For either assay format, the inoculum was prepared to c. 10^7CFU/mL1 of the desired strain and the inoculated device was incubated at 35° C. and 95% relative humidity for the required time. Unless otherwise noted, all experiments utilized the MBEC P&G assay. Pegs from the devices were collected at specific time points for scanning electron microscopy and scanning confocal laser microscopy. Biofilm cell densities were evaluated by breaking pegs from the lid of the MBEC device with sterile pliers, rinsing the peg in PBS, and subsequent viable-cell counting as described above. PBS containing the […] surfactant Tween-20 (1% v/v) was used to assist in recovery of bacteria from the peg surfaces. Pegs were sonicated for 30 min in an Aquasonic model 250HT ultrasonic cleaner (VWR International, Mississauga, Canada). Samples of broth culture were collected at the same time points and viable cell counts were determined in a similar manner.
as §1, §2

[8] = tested on: Pseudomonas aeruginosa PA14 SCV biofilms; assay: Biofilm susceptibility testing (viable cell counts, log-killing, MBEC99.9); type: cell-based; settings: for MBEC99.9: 2 h exposure, 3 log10 reduction in viable cells; for tolerance of SCV strain biofilms relative to the wild-type strain: ratio of MBEC99.9 values, SCV vs wild type
Description: as §3, §1, §2

[9] = tested on: Pseudomonas aeruginosa PA14 gacS^− biofilms; assay: as above; type: cell-based; settings: for Log-survival / No. of survivors / SCV frequency: LB broth; for Log-survival / No. of survivors / SCV frequency / MBEC99.9: 2 h exposure; for MBEC99.9: gacS^− biofilms, 3 log10 reduction in viable cells
Description: as §3, §1, §2

## CO[C@H]1/C=C/O[C@@]2(C)Oc3c(C)c(O)c4c(O)c(c(/C=N/N5CCN(C)CC5)c(O)c4c3C2=O)NC(=O)/C(C)=C\C=C\[C@H](C)[C@H](O)[C@@H](C)[C@@H](O)[C@@H](C)[C@H](OC(C)=O)[C@@H]1C [Rifampicin]
[1]; 5 μg/mL
  cells killed from the biofilm population: 0.7 log10 cells
[1]; antibiotic 5 μg mL^−1
  Log-survival: −0.7 ± 0.3 log10 CFU peg^−1
  No. of survivors: 5.7 ± 0.3 log10 CFU peg^−1
  SCV frequency: 58%

## O=C(N[C@H](CO)[C@H](O)c1ccc([N+](=O)[O-])cc1)C(Cl)Cl [chloramphenicol]
[2]
  biofilm resistance relative to PA14 wild type or toxA control strain: moderately decreased resistance

## polymixin B
[2]
  biofilm resistance relative to PA14 wild type or toxA control strain: moderately decreased resistance

## C[C@@H](O)[C@H]1C(=O)N2C(C(=O)O)=C(SCCN=CN)C[C@H]12 [Imipenem]
[3]
  Log-survival: −3.8 ± 1.0 log10 CFU peg^−1
  SCV frequency: 0%
[1]; antibiotic 1.25 μg mL^−1
  No. of survivors: 2.7 ± 1.0 log10 CFU peg^−1

## CC[C@H]1OC(=O)[C@H](C)[C@@H](O[C@H]2C[C@@](C)(OC)[C@@H](O)[C@H](C)O2)[C@H](C)[C@@H](O[C@@H]2O[C@H](C)C[C@H](N(C)C)[C@H]2O)[C@](C)(O)C[C@@H](C)C(=O)[C@H](C)[C@@H](O)[C@]1(C)O [Erythromicin]
[3]; in words
  selection for SCVs / increase of the frequency of SCV cells compared with growth controls: in no instances
[2]
  biofilm resistance relative to PA14 wild type or toxA control strain: moderately decreased resistance
[1]; antibiotic 5 μg mL^−1
  Log-survival: −0.1 ± 0.3 log10 CFU peg^−1
  No. of survivors: 6.4 ± 0.3 log10 CFU peg^−1
  SCV frequency: 0%

## Cc1onc(-c2ccccc2)c1C(=O)N[C@@H]1C(=O)N2[C@@H]1SC(C)(C)[C@@H]2C(=O)O [Oxacilin]
[3]
  frequency of SCVs (phenotypic variants) among surviving cells, in words: approximately one in three
  Log-survival: −0.9 ± 0.6 log10 CFU peg^−1
  SCV frequency: 32%
[1]; antibiotic 1.25 μg mL^−1
  No. of survivors: 5.6 ± 0.6 log10 CFU peg^−1

## CO/N=C(\C(=O)N[C@@H]1C(=O)N2C(C(=O)O)=C(CSc3nc(=O)c(O)nn3C)CS[C@H]12)c1csc(N)n1 [Ceftrioxone]
[3]
  frequency of SCVs (phenotypic variants) among surviving cells, in words: approximately one in three
  Log-survival: +0.4 ± 0.5 log10 CFU peg^−1
  SCV frequency: 29%
[1]; antibiotic 1.25 μg mL^−1
  No. of survivors: 6.8 ± 0.5 log10 CFU peg^−1

## [Cu+2] [Cu^2+]
[4]
  differences in planktonic cell susceptibility between the different strains: no significant differences
  MIC72 h: 8000 ± 0 µM
[5]
  MIC72 h: 4000 ± 0 µM
[6]
  MIC72 h: 8000 ± 0 µM
[7]
  MBEC99.9: 8 ± 0 mM
[8]; SCV biofilms
  MBEC99.9: 64 ± 0 mM
[8]
  tolerance of SCV strain biofilms relative to the wild-type strain: eight
[9]; 16 μg mL^−1
  Log-survival: −0.9 ± 0.1 log10 CFU peg^−1
  No. of survivors: 4.2 ± 0.1 log10 CFU peg^−1
  SCV frequency: 0%
[9]
  MBEC99.9: 7 ± 2 mM

## CCN1CCN(C(=O)N[C@@H](C(=O)N[C@@H]2C(=O)N3[C@@H]2SC(C)(C)[C@@H]3C(=O)O)c2ccccc2)C(=O)C1=O [piperacillin]
[3]
  frequency of SCVs (phenotypic variants) among surviving cells, in words: approximately one in three
[2]
  biofilm resistance relative to PA14 wild type or toxA control strain: moderately decreased resistance

## NCC[C@H](O)C(=O)N[C@@H]1C[C@H](N)[C@@H](O[C@H]2O[C@H](CN)[C@@H](O)[C@H](O)[C@H]2O)[C@H](O)[C@H]1O[C@H]1O[C@H](CO)[C@@H](O)[C@H](N)[C@H]1O [Amikacin]
[3]
  frequency of SCVs (phenotypic variants) among surviving cells, in words: approximately one in five
[1]; antibiotic 5 μg mL^−1
  Log-survival: −2.8 ± 0.6 log10 CFU peg^−1
  No. of survivors: 3.6 ± 0.6 log10 CFU peg^−1
  SCV frequency: 23%

## [Ag+] [Ag^+]
[4]
  differences in planktonic cell susceptibility between the different strains: no significant differences
  MIC72 h: 40 ± 20 µM
[5]
  MIC72 h: 40 ± 0 µM
[6]
  MIC72 h: 40 ± 10 µM
[7]; PA14 wt biofilms, 2 h exposure (FIG. 15)
  concentration at which the vast majority of cell viability was lost: 0.04 mM
[7]
  MBEC99.9: 0.08 ± 0.05 mM
[8]; SCV biofilms, 2 h exposure (FIG. 15)
  concentration to which biofilms were resistant: 2.4 mM
[8]; SCV biofilms
  MBEC99.9: 4.8 ± 0 mM
[8]
  tolerance of SCV strain biofilms relative to the wild-type strain: ~60 times
[9]; 4 μg mL^−1
  Log-survival: −2.6 ± 0.1 log10 CFU peg^−1
  No. of survivors: 2.4 ± 0.1 log10 CFU peg^−1
  SCV frequency: 7%
[9]; PA14 gacS biofilms, 2 h exposure (FIG. 15)
  concentration at which the vast majority of cell viability was lost: 0.02 mM
[9]
  MBEC99.9: 0.06 ± 0.02 mM
[9]; susceptibility assays, in words
  proportion of SCV cells recovered from biofilms after exposure, relative to growth controls: increased

## CC[C@H]1OC(=O)[C@H](C)[C@@H](O[C@H]2C[C@@](C)(OC)[C@@H](O)[C@H](C)O2)[C@H](C)[C@@H](O[C@@H]2O[C@H](C)C[C@H](N(C)C)[C@H]2O)[C@](C)(O)C[C@@H](C)CN(C)[C@H](C)[C@@H](O)[C@]1(C)O [azythromycin]
[2]
  biofilm resistance relative to PA14 wild type or toxA control strain: moderately decreased resistance

## NC[C@H]1O[C@H](O[C@H]2[C@H](O)[C@@H](O[C@H]3O[C@H](CO)[C@@H](O)[C@H](N)[C@H]3O)[C@H](N)C[C@@H]2N)[C@H](N)C[C@@H]1O [Tobramicin]
[3]
  frequency of SCVs (phenotypic variants) among surviving cells, in words: approximately one in five
  Log-survival: −1.0 ± 0.5 log10 CFU peg^−1
  SCV frequency: 14%
[1]; antibiotic 1.25 μg mL^−1
  No. of survivors: 5.4 ± 0.5 log10 CFU peg^−1

## C[C@H]1[C@H](NC(=O)/C(=N\OC(C)(C)C(=O)O)c2csc(N)n2)C(=O)N1S(=O)(=O)O [Azetronam]
[3]
  Log-survival: −2.6 ± 0.5 log10 CFU peg^−1
  SCV frequency: 24%
[1]; antibiotic 1.25 μg mL^−1
  No. of survivors: 4.5 ± 0.5 log10 CFU peg^−1
